Laboratory results reported in US20100022551A1, “TRIMETAZIDINE FOR USE IN THE TREATMENT OF FIBROMYALGIA SYNDROME AND RELATED CONDITIONS” (Mintals Limited Consulco, Consulco House, priority 2006, published 2010).
Where “and” joins values, the source holds several entries; their conditions need not be identical. Equal entries are not always repeated. Entries after “also recorded” stand apart in the source; their conditions may differ.

Columns and labels:
[1] = test system: Human Subject Diagnosed with Fibromyalgia; test: Patient history of prior treatment of the fibromyalgia subjects; details: for pain relief, OTC analgesics: Examples 1-3, codeine at low dose; for pain relief, prescription analgesics / side effects, prescription analgesics: Examples 1-3, codeine at high dose
Description: (§1) Patient History of Prior Treatment: A patient history was taken. Prior treatments targeting pain relief were as follows.
Prior treatments targeting other symptoms included the following. The subject had taken tegaserod for irritable bowel syndrome. Additional prior therapies included sertraline for depression, and zolpidem for insomnia. The subject has also taken proclorperazine for dizziness.
Prior treatments targeting other symptoms included the following. The subject had taken tegaserod for irritable bowel syndrome. Additional prior therapies included sertraline for depression, and zolpidem for insomnia.
as §1
Prior treatments targeting other symptoms included the following. The subject had taken tegaserod for irritable bowel syndrome. Additional prior therapies included zolpidem, midazolam, zopiclone, and chlorpheniramine for insomnia.

pyruvate dehydrogenase = details: Kantor et al., Circ. Res. 2000; cited from earlier work
[2] = biological target: long chain 3-ketoacyl CoA thiolase (Rattus norvegicus, UniProt Q60587); details: Kantor et al., Circ. Res. 2000; cited from earlier work
Sequence of long chain 3-ketoacyl CoA thiolase (Q60587 35-475): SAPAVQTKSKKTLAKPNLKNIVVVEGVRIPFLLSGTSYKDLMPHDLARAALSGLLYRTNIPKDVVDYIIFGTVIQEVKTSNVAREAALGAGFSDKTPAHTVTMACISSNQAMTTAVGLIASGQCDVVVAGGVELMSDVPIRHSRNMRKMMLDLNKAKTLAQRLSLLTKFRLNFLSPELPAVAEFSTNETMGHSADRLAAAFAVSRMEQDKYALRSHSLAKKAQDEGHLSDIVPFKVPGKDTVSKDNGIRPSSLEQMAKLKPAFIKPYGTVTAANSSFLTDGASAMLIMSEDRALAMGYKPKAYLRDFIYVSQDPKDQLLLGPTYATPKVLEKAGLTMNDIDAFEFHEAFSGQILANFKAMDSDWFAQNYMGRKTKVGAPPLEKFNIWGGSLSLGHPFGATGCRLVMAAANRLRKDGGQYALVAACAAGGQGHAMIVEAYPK
Sequence of long chain 3-ketoacyl CoA thiolase (Q64428 37-763 partner): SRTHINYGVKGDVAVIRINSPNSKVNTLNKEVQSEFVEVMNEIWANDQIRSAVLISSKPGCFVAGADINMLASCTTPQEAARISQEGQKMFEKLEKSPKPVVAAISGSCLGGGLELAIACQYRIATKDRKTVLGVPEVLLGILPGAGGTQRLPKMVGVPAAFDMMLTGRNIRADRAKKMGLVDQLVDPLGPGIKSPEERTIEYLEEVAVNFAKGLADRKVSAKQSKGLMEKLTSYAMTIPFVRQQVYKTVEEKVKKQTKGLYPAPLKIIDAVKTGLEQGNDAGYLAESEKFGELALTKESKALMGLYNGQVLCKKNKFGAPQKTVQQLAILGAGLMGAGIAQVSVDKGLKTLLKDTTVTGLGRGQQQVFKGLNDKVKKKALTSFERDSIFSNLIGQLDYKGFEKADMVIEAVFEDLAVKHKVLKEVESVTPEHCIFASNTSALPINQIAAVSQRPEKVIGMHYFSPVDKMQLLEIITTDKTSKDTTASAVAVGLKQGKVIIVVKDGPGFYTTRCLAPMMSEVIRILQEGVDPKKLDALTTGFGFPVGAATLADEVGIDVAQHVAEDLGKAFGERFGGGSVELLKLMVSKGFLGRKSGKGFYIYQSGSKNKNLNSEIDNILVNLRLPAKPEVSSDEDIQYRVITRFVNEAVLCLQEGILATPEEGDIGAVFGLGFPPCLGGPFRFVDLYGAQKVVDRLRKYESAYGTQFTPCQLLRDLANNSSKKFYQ

[3] = test system: long-chain fatty acid oxidation; details: Kantor et al., Circ. Res. 2000; cited from earlier work
[4] = test system: Human Subject Diagnosed with Fibromyalgia; test: Treatment of human subjects diagnosed with fibromyalgia with trimetazidine (Vastarel MR 35 mg orally, twice daily); assay type: in vivo; details: for reduction in the widespread pain: subject-reported
Description: A person presented with long-standing complaints (15 years) of widespread pain—headaches, upper and lower back pain, neck pain, elbow and knee pain bilaterally, calf pain bilaterally and jaw pain. General non-specific symptoms were fatigue, symptoms of irritable bowel syndrome (constipation-type), insomnia, cognitive and memory impairment, morning stiffness, dizziness, irritability and depression.
Treatment Regime: The subject was administered trimetazidine (modified release formulation, Vastarel® MR), 35 mg orally, twice daily, originally for treatment of their cardiac condition.
A person presented with long-standing complaints (10 years) of widespread pain—headaches, upper and lower back pain, neck pain, hip pain bilaterally, knee pain bilaterally and jaw pain. General non-specific symptoms were fatigue, symptoms of irritable bowel syndrome (constipation-type), insomnia, cognitive and memory impairment, morning stiffness, and depression.
Treatment Regime: The subject was administered trimetazidine (modified release formulation, Vastarel® MR), 35 mg orally, twice daily.
A person presented with a 5 year history of complaints of widespread pain headaches, upper and lower back pain, neck pain, hip pain bilaterally and knee pain bilaterally. General non-specific symptoms were fatigue, symptoms of irritable bowel syndrome (constipation-type), insomnia, morning stiffness and emotional liability.
The following is a synopsis of the clinical response of each of eight (8) patients diagnosed with FMS, each of whom received treatment with trimetazidine MR (Vastarel® MR), 35 mg orally, twice daily, for a period of at least four (4) weeks

glucose oxidation = details: Kantor et al., Circ. Res. 2000; cited from earlier work
[5] = Example 1, after six (6) months of continuous use
[6] = Example 4, individual FMS patients, Short Term i.e. within 72 hours
[7] = Example 4, individual patients, Medium Term i.e. over four (4) weeks
[8] = Example 4, individual patients, within 72 hours
[9] = Example 4, person five, within 72 hours
[10] = Example 4, person four, within 72 hours
[11] = Example 4, person one, within 72 hours
[12] = Examples 2 and 3, after four (4) months of continuous use
[13] = Examples 2 and 3, within 24 hours

For `CCN(CC)CC(=O)Nc1c(C)cccc1C` [lidocaine], the “localized pain relief, trigger point injections” value ([1]; Examples 1 and 2) was “the best localized pain relief”.

In the case of `COc1ccc(CN2CCNCC2)c(OC)c1OC` [trimetazidine, 1-(2,3,4-trimethyloxybenzyl)piperazine], the “levels of pyruvate dehydrogenase” value (pyruvate dehydrogenase) is listed as “increased levels”, the “activity of long chain 3-ketoacyl CoA thiolase” value [2] is listed as “decreased activity” and the “long-chain fatty acid oxidation” value [3] is listed as “inhibits”. For the same compound, the “time at which benefits were first noticed after commencing therapy” value ([4]; Example 1, person, 35 mg orally twice daily) was at most 24 h, the “improvement in all symptoms and signs of fibromyalgia” value ([4]; Example 1, person, 35 mg orally twice daily, within 72 hours of starting treatment) was “vast improvement” and the “reduction in the widespread pain” value ([4]; Example 1, person, within 72 hours) was 90%. For the same compound, the “episodes of pain at trigger points at follow-up” value [4, 5] was “infrequent”, the “quality of life at follow-up” value [4, 5] was “same marked improvement” and the clarity of thoughts ([4]; Example 1, within 72 hours) was “markedly increased”. For the same compound, the energy levels ([4]; Example 1, within 72 hours) was “very significantly increased”, the level of irritability ([4]; Example 1, within 72 hours) was “markedly reduced” and the mood ([4]; Example 1, within 72 hours) was “very improved”. The “regularity of bowel habits” value ([4]; Example 1, within 72 hours) was “markedly improved”, the residual pain ([4]; Example 1, within 72 hours) was “minimal residual pain reported at the left medial knee” and the “short and long term memory” value ([4]; Example 1, within 72 hours) was “improvement”. The sleep patterns ([4]; Example 1, within 72 hours) was “very significantly improved”, the clarity of thoughts ([4]; Example 2, within 24 hours) was “markedly increased” and the “short and long term memory” value ([4]; Example 2, within 24 hours) was “improvement”. The “reduction in widespread pain” value [4, 6] was 90% reduction in, the “reduction in widespread pain and trigger point pain” value [4, 6] was 90% reduction in and the “affect (EXAMINATION FINDINGS; patient: affect and energy levels)” value ([4]; Example 4, individual patients) was “markedly improved”. For the same compound, the “resolution of trigger point tenderness (EXAMINATION FINDINGS)” value ([4]; Example 4, individual patients) was “Sustained”, the Residual symptoms [4, 7] was “include mild acid; also recorded: infrequent headaches; also recorded: insomnia; also recorded: episodes of joint” and the sense of well-being [4, 7] was “increased sense of”. For the same compound, the specific complaints [4, 7] was “symptoms with no”, the Energetic feeling [4, 8] was “Energetic feeling” and the “Nausea (patient: Nausea and Vomiting)” value [4, 8] was “Absence of Nausea”. The “alertness and clarity of thinking” value [4, 8] was “Increased alertness”, the dizziness/dizzy spells [4, 8] was “Infrequent dizzy; also recorded: Absence of” and the “improved mood and concentration” value [4, 8] was “Significantly”. The “improved mood and memory” value [4, 8] was “Significantly”, the “reduction in feeling of generalized tightness and stiffness of muscles” value [4, 8] was 90% reduction in (2×) and 90% reduction of and the sleep [4, 8] was “Consistent restful”. For the same compound, the “improved energy levels (EXAMINATION FINDINGS)” value ([4]; Example 4, person five) was “Markedly”, the reduction in irritability [4, 9] was 90% reduction in and the “reduction in symptoms of Irritable Bowel Syndrome” value [4, 9] was 90% reduction in. The Memory [4, 10] was “Improved Memory”, the Nervousness [4, 10] was “No Nervousness” and the “improvement in physical appearance (EXAMINATION FINDINGS)” value ([4]; Example 4, person one) was “obvious marked”. For the same compound, the “increase in energy levels” value ([4]; Example 4, person one, after four (4) weeks of daily use) was “particular a sustained”, the “Chest Pain” value [4, 11] was “Absence of Chest” and the “symptoms of Irritable Bowel Syndrome” value [4, 11] was “Markedly reduced”. The “sustained improvement of symptoms” value ([4]; Example 4, person three, after four (4) months of daily use) was 95% sustained, the “reduction in IBS and Acid Reflux Symptoms” value ([4]; Example 4, person three, within 72 hours) was 90% reduction in and the “sustained improvement of symptoms” value ([4]; Example 4, person two, after seven (7) weeks of daily use) was “dramatic 95%”. For the same compound, the “reduction in severity of Pre-Menstrual Cramps” value ([4]; Example 4, person two, within 72 hours) was 70% reduction in, the “sustained improvement of all symptoms” value ([4]; Example 4, person, after five (5) weeks of daily use) was 95% sustained and the “sustained improvement of symptoms” value ([4]; Example 4, person, after six (6) weeks of daily use) was “(95%) sustained”. For the same compound, the “sustained improvement of symptoms” value ([4]; Example 4, after four (4) weeks of daily use) was 95% sustained and 90% sustained, the “improvement in all symptoms and signs of fibromyalgia” value ([4]; Examples 2 and 3, single female patients, 35 mg orally twice daily, within 24 hours of starting treatment) was “vast improvement” and the “reduction in the widespread pain” value ([4]; Examples 2 and 3, single female patients, within 24 hours) was 95%. The “quality of life at follow-up” value [4, 12] was “same marked improvement”, the relapse of symptoms [4, 12] was “no relapse” and the energy levels [4, 13] was “very significantly increased”. For the same compound, the mood [4, 13] was “very improved”, the “regularity of bowel habits” value [4, 13] was “markedly improved” and the residual pain [4, 13] was “minimal residual pain reported at the left hip; also recorded: residual mild headache”. For the same compound, the sleep patterns [4, 13] was “very significantly improved”, the “reduction in widespread pain” value ([4]; FMS patients, course of treatment of at least four weeks) was “remarkable and measurable reduction” and the “sustained or improved relief of widespread pain at follow-up” value ([4]; all patients, follow-up at either four months or four weeks of treatment) was 90-95%. The “improvement of minor symptoms” value ([4]; all patients, within 72 hours) was “significant improvement”, the “improvement in widespread pain” value ([4]; eleven human subjects, each) was “remarkable improvement” and the “reduction in widespread pain, and where applicable, tender point pain” value ([4]; eleven human subjects, each, within 72 hours of commencement of treatment) was “marked reduction”. For the same compound, the “reduction in widespread pain, on average” value ([4]; eleven human subjects, within 72 hours of commencing treatment) was 90% and the glucose oxidation (glucose oxidation) was “stimulates”.

For `CC(=O)Nc1ccc(O)cc1` [paracetamol], the “pain relief, OTC analgesics” value [1] was “no pain relief whatsoever; also recorded: negligible pain relief”.

With `COc1cccc(C2(O)CCCCC2CN(C)C)c1` (centres unmarked) [tramadol] the “pain relief, prescription analgesics” value [1] was “mild to moderate and very temporary relief” and the “side effects, prescription analgesics” value [1] was “frequently accompanied by unpleasant side effects”.

In the case of `CCOC(=O)C1(c2ccccc2)CCN(C)CC1` [meperidine], the “pain relief, prescription analgesics” value [1] is reported as “mild to moderate and very temporary relief” and the “side effects, prescription analgesics” value [1] is reported as “frequently accompanied by unpleasant side effects”.

In the case of `COc1ccc2c3c1O[C@H]1[C@@H](O)C=C[C@H]4[C@@H](C2)N(C)CC[C@@]341` [codeine], the “pain relief, prescription analgesics” value [1] is reported as “mild to moderate and very temporary relief”, the “side effects, prescription analgesics” value [1] is reported as “frequently accompanied by unpleasant side effects” and the “pain relief, OTC analgesics” value [1] is reported as “no pain relief whatsoever; also recorded: negligible pain relief”.
